Columns and labels:
Type in all cases: cell-based, human
MUC2 = assay: qRT-PCR RNA expression of MUC2 gene in LS174T cells exposed to HMO; conditions: 0.1 mg/mL, 48 hours
CCR2 = assay: qRT-PCR RNA expression of CCR2 gene in LS174T cells exposed to HMO; conditions: 48 hours; for fold change in RNA expression of CCR2 relative to Control: normalized to GUSB, P<0.05
Procedure: (§1) The ability of HMOs to increase expression of mucosal innate immune receptors and cytokines was tested by exposing LS174T human colorectal cancer cells, which are a model of human intestinal goblet cells, to either of the HMOs, 2′-FL or LNnT. The LS174T cells were obtained from the American Type Culture Collection (ATCC). LS174T cells were maintained in minimum essential medium supplemented with 10% Fetalplex, 1.5 g/L of Na2CO3, 10 ml/L penicillin G-streptomycin solution at 37° C. in 5% CO2. Cells were plated at 0.2×10^5 cells/ml/well in 24-well plates and allowed to attach for 24-30 hours. Solutions containing each HMO were prepared by resuspending lyophilized HMO in cell culture grade water to a 10% solution and filter-sterilizing before diluting to the appropriate level in culture media. A solution free of carbohydrates (i.e., fresh medium alone, Control) was also prepared using the same procedure. After preparation of the HMO-containing solutions, the LS174T cell cultures were rinsed with 1×HBSS and then incubated in 0.5 ml of fresh medium alone (Control) or containing 0.1 mg/mL or 1 mg/mL of 2′-FL (2FL), LNnT (LNnT), fucose (FUCOSE), or lactose (LAC) for 48 hours. Cells were harvested at the end of incubation with 1 ml of TRIzol to obtain RNA samples. RNA expression levels of the genes for the mucosal innate immune receptor proteins TLR3, TLR4, CCR2 and the cytokine IL1B were determined by quantitative reverse transcriptase polymerase chain reaction (qRT-PCR) of RNA samples from the cells. Fold change (Fold induction) in the RNA expression levels of the genes for the receptor proteins and the cytokine was normalized based on the change in GUSB transcript expression. Reported fold changes are the mean+/−[…]. Treatments with statistically significant differences in fold expression (P<0.05) are reported with different letters above the bars.

IL1B = assay: qRT-PCR RNA expression of cytokine IL1B gene in LS174T cells exposed to HMO; conditions: 1 mg/mL, 48 hours, normalized to GUSB, P<0.05
Procedure: The ability of HMOs to increase expression of mucosal innate immune receptors and cytokines was tested by exposing LS174T human colorectal cancer cells, which are a model of human intestinal goblet cells, to either of the HMOs, 2′-FL or LNnT. The LS174T cells were obtained from the American Type Culture Collection (ATCC). LS174T cells were maintained in minimum essential medium supplemented with 10% Fetalplex, 1.5 g/L of Na2CO3, 10 ml/L penicillin G-streptomycin solution at 37° C. in 5% CO2. Cells were plated at 0.2×10^5 cells/ml/well in 24-well plates and allowed to attach for 24-30 hours. Solutions containing each HMO were prepared by resuspending lyophilized HMO in cell culture grade water to a 10% solution and filter-sterilizing before diluting to the appropriate level in culture media. A solution free of carbohydrates (i.e., fresh medium alone, Control) was also prepared using the same procedure. […] RNA expression levels of the genes for the mucosal innate immune receptor proteins TLR3, TLR4, CCR2 and the cytokine IL1B were determined by quantitative reverse transcriptase polymerase chain reaction (qRT-PCR) of RNA samples from the cells. […]

TLR3 = assay: qRT-PCR RNA expression of TLR3 gene in LS174T cells exposed to HMO; conditions: 48 hours; for fold change in RNA expression of TLR3 relative to Control: normalized to GUSB, P<0.05
Procedure: as §1

TLR4 = assay: qRT-PCR RNA expression of TLR4 gene in LS174T cells exposed to HMO; conditions: 48 hours; for fold change in RNA expression of TLR4 relative to Control: normalized to GUSB, P<0.05
Procedure: as §1

Compound	MUC2 gene expression (MUC2)	increase in CCR2 expression, 0.1 mg/mL treatment compared with 1 mg/mL treatment (CCR2; 0.1 mg/mL vs 1 mg/mL)	fold change in RNA expression of CCR2 relative to Control (CCR2; 0.1 mg/mL)	fold change in RNA expression of CCR2 relative to Control (CCR2; 1 mg/mL)	fold change in RNA expression of IL1B relative to Control (IL1B)	increase in TLR3 expression, 0.1 mg/mL treatment compared with 1 mg/mL treatment (TLR3; 0.1 mg/mL vs 1 mg/mL)	fold change in RNA expression of TLR3 relative to Control (TLR3; 0.1 mg/mL)	fold change in RNA expression of TLR3 relative to Control (TLR3; 1 mg/mL)	increase in TLR4 expression, 0.1 mg/mL treatment compared with 1 mg/mL treatment (TLR4; 0.1 mg/mL vs 1 mg/mL)	fold change in RNA expression of TLR4 relative to Control (TLR4; 0.1 mg/mL)	fold change in RNA expression of TLR4 relative to Control (TLR4; 1 mg/mL)
2′-fucosyllactose [2′-FL]	significant increase	greater increase in expression in response to the 0.1 mg/mL 2′-FL treatment than the 1 mg/mL 2′-FL treatment	statistically significant fold change	statistically significant fold change	statistically significant fold change	greater increase in expression in response to the 0.1 mg/mL 2′-FL treatment than the 1 mg/mL 2′-FL treatment	statistically significant fold change	statistically significant fold change	greater increase in expression in response to the 0.1 mg/mL 2′-FL treatment than the 1 mg/mL 2′-FL treatment	statistically significant fold change	statistically significant fold change
CC(=O)N[C@H]1[C@H](O[C@H]2[C@@H](O)[C@@H](CO)O[C@@H](O[C@H]3[C@H](O)[C@@H](O)C(O)O[C@@H]3CO)[C@@H]2O)O[C@H](CO)[C@@H](O[C@@H]2O[C@H](CO)[C@H](O)[C@H](O)[C@H]2O)[C@@H]1O (mixture of isomers) [LNnT, lacto-N-neotetraose]			significantly enhanced	significant change in expression	significant change in expression			significant change in expression			significant change in expression

— US10792294B2, “Methods for enhancing mucosal innate immune responses to and/or detection of pathogens using human milk oligosaccharides” (ABBOTT LABORATORIES, priority 2014, dated 2020)
